Source: patent US4663326A, “Pyrazolo[4,3-d]pyrimidine-5,7-(4H,6H)dione or -5-thione-7-one analogs” (Warner-Lambert Company, priority 1985, dated 1987)

Experiments:
[1] = target: T1, adenosine receptors (designated A1) (Rattus norvegicus, UniProt P25099); test: Adenosine receptor binding - A1 receptor affinity (RBA1), [3H]-CHA displacement, rat whole brain minus cerebellum and brainstem membranes; set-up: species or system rat (male Long Evans); conditions: 1.0 nM [3H]-CHA, 25° C., pH 7.7; repeat tests (Test 1-4) one line each; read-out: RBA-1 (IC50, adenosine A1 affinity)
T1 construct: Whole brain minus cerebellum and brainstem from male Long Evans rats (150-200 g); from tissue; host or cells: whole brain minus cerebellum and brainstem, male Long Evans rats, membranes
T1 sequence (P25099 1-326): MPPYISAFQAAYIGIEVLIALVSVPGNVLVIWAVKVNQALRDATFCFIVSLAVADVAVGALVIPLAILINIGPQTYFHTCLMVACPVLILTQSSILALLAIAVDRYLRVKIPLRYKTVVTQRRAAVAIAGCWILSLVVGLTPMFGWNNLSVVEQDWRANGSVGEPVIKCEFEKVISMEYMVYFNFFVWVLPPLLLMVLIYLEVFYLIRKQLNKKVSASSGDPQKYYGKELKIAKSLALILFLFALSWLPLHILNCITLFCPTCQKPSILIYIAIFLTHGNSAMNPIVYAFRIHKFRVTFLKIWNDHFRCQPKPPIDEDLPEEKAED
Procedure: ADENOSINE RECEPTOR BINDING-A1 RECEPTOR AFFINITY (RBA1)
Whole brain minus cerebellum and brainstem from male Long Evans rats (150-200 g) was homogenized in 30 volumes of ice-cold 0.05M Tris-HCl buffer pH 7.7 using a Brinkman Polytron PT-10, (setting number 6 for 20 seconds) and centrifuged for ten minutes at 20,000×g (Sorvall RC-2), 4° C. The supernatant was discarded, and the pellet was resuspended and centrifuged as before. The pellet was resuspended in 20 ml Tris-HCl buffer containing two International Units/ml of adenosine deaminase (Sigma type III from calf intestinal mucosa), incubated at 37° C. for 30 minutes, then subsequently at 0° C. for ten minutes. The homogenate was again centrifuged, and the final pellet was resuspended in ice-cold 0.05M Tris-HCl buffer pH 7.7 to a concentration of 20 mg/ml original wet tissue weight and used immediately.
Tissue homogenate (10 mg/ml) was incubated in 0.05M Tris-HCl buffer pH 7.7 containing 1.0 nM [^3 H]-N^6 -cyclohexyladenosine (^3 H]-CHA) with or without test agents in triplicate for one hour at 25° C. Incubation volume was 2 ml. Unbound [^3 H]-CHA was separated by rapid filtration under reduced pressure through Whatman glass fiber (GF/B) filters. The filters were rinsed three times with 5 ml of ice cold 0.05M Tris-HCl buffer pH 7.7. The radio-labeled ligand retained on the filter was measured by liquid scintillation spectrophotometry after shaking the filters for one hour or longer on a mechanical shaker in 10 ml of Beckman Ready-Solv HP scintillation cocktail.
Nonspecific binding was defined as the binding which occurred in the presence of 1 mM theophylline. The concentration of test agent which inhibited 50% of the specific binding (IC50) was determined by nonlinear computer curve fit. The Scatchard plot was calculated by linear regression of the line obtained by plotting the amount of radioligand bound ([…]) versus [bound radioligand/free radioligand].Since the amount of radioligand bound was a small fraction of the total amount added, free radioligand was defined as the concentration (nM) of radioligand added to the incubation mixture. The Hill coefficient was calculated by linear regression of the line obtained by plotting the log of the bound radioligand vs the log of the [bound radioligand/(Bmax -bound radioligand)]. The maximal number of binding sites (Bmax) was calculated from the Scatchard plot.

[2] = test system: Type 3 Phosphodiesterase; test: PDE inhibition, Type 3 phosphodiesterase, smooth muscle (bovine coronary arteries); format: biochemical; conditions: 1 × 10^-5 M
Source text: The method of Thompson, et al (Thompson, W. J., Terasaki, W. L., Epstein, P. M., Strada, S. J., Adv. Cyclic Nucleotide Res., 10:69-92, 1979), with minor modifications, was used to isolate phosphodiesterases from vascular smooth muscle. Bovine coronary arteries (right, anterior descending, and left circumflex arteries) from hearts obtained from a local slaughterhouse were used for these studies. Arteries from two hearts were used for each isolation. Hearts were kept on ice and the arteries were dissected within two hours after the animals were sacrificed. After removing all fat and connective tissue, the arteries were everted, cut into cubes with a single edge razor blade and homogenized with a Brinkman Polytron three times at a rheostat setting of 10.0 in four volumes of the PDE isolation buffer (10 mM Tris-HCl/pH 7.5, 2 mM MgCl2, and 1 mM dithiothreitol). The resulting homogenate was sonicated (30 sec/ml homogenate) and then centrifuged at 30,000×g for 20 minutes. This and all subsequent procedures were performed at 4° C. […]
(§1) Phosphodiesterase activity was measured as described previously (Weishaar, P. E., Quade, M., Boyd, D., Schenden, J., Mark, S. S., Kaplan, H. R., Drug Devel. Res., 3:517-534, 1983), in a reaction medium containing 40 mM Tris-HCl (pH 8.0), 5 mM MgCl and 4 mM 2-mercaptoethanol. […]

[3] = test system: Type 1 Phosphodiesterase; test: PDE inhibition, Type 1 phosphodiesterase, smooth muscle (bovine coronary arteries); format: biochemical; conditions: 1 × 10^-5 M
Source text: The method of Thompson, et al (Thompson, W. J., Terasaki, W. L., Epstein, P. M., Strada, S. J., Adv. Cyclic Nucleotide Res., 10:69-92, 1979), with minor modifications, was used to isolate phosphodiesterases from vascular smooth muscle. Bovine coronary arteries (right, anterior descending, and left circumflex arteries) from hearts obtained from a local slaughterhouse were used for these studies. Arteries from two hearts were used for each isolation. Hearts were kept on ice and the arteries were dissected within two hours after the animals were sacrificed. After removing all fat and connective tissue, the arteries were everted, cut into cubes with a single edge razor blade and homogenized with a Brinkman Polytron three times at a rheostat setting of 10.0 in four volumes of the PDE isolation buffer (10 mM Tris-HCl/pH 7.5, 2 mM MgCl2, and 1 mM dithiothreitol). The resulting homogenate was sonicated (30 sec/ml homogenate) and then centrifuged at 30,000×g for 20 minutes. This and all subsequent procedures were performed at 4° C. The resulting supernatant was filtered through four layers of gauze, and applied to a DEAE-cellulose column (30×1.5 cm), prepared as described by Cheung (Cheung, W. Y., Biochim. Biopphys. Acta, 191:303-315, 1969), and equilibrated with freshly prepared 70 mM sodium acetate/5 mM 2-mercaptoethanol (pH 6.5). The column was then washed with 2-3 bed volumes of sodium acetate/2-mercaptoethanol, after which the phosphodiesterases were eluted from the column using a continuous 70-1,000 mM sodium acetate gradient (pH 6.5, containing 5 mM 2-mercaptoethanol; total volume 400 ml). The flow rate was approximately equal to 25 ml/hr. Eight ml fractions were collected and assayed for cyclic AMP- and cyclic GMP-phosphodiesterase activity in the presence and absence of 0.1 units of calmodulin and 10 mM CaCl2. Appropriate fractions were pooled and dialyzed against 70 mM sodium acetate/5 mM 2-mercaptoethanol for 20 hours.
Following complete separation, the combined phosphodiesterase fractions were concentrated to 14% of the original volume using an Amicon ultrafiltration cell fitted with a UM-10 membrane, according to the method of Wells, et al (Wells, J. N., Baird, C. E., Wu, Y. J., Hardman, J. G., Biochim. Biophys. Acta, 384:430-442, 1975). Following concentration, the protein was then diluted to 65% with ethylene glycol monoethyl ether, and stored at -20° C.
as §1, with “2-mercaptoethanol. Unless otherwise noted, the concentration of substrate (^3 H-cyclic AMP or ^3 H-cyclic GMP) was 1.0 μM.” for “2-mercaptoethanol.”

| Structure (SMILES) | IC50 [1] [µM] | % Inhibition of 3H-cAMP Hydrolysis, Type 3 Phosphodiesterase [2] | % Inhibition of 3H-cAMP Hydrolysis, Type 1 Phosphodiesterase [3] | % Inhibition of 3H-cGMP Hydrolysis, Type 1 Phosphodiesterase [3] |
| --- | --- | --- | --- | --- |
| Cc1nn(C)c2c(=O)[nH]c(=O)[nH]c12 [Example 1, 1,3-Dimethylpyrazolo[4,3-d]pyrimidine-5,7-(4H, 6H)dione] | 11 | N (0-20% inhibition at 1 × 10^-5 M) | N (0-20% inhibition at 1 × 10^-5 M) | N (0-20% inhibition at 1 × 10^-5 M) |
| CCn1nc(C)c2[nH]c(=S)[nH]c(=O)c21 [Example 2, 1-Ethyl-1,4,5,6-tetrahydro-3-methyl-pyrazolo[4,3-d]pyrimidine-5-thione-7-on] | 19.3 | B (36-55% inhibition at 1 × 10^-5 M) | N (0-20% inhibition at 1 × 10^-5 M) | N (0-20% inhibition at 1 × 10^-5 M) |
